In ChEMBL document CHEMBL3045371, “Structure-Activity Relationships of the Azole Fungicide Metconazole and Its Related Azolylmethylcycloalkanols” (1999):
≈ marks a conversion by molar mass, not a printed value.

System: Fusarium fujikuroi
Experiment: Fungicidal activity against Fusarium fujikuroi assessed as inhibition of mycelial growth incubated for 3 days at 28 degC
Assay type: functional
Details: 72 h

Question: How did the EC90 turn out when CC1(C)CC[C@@H](Cc2ccc(Cl)cc2)[C@@]1(O)Cn1cncn1 was run?
Answer: Its EC90 is 2 µg/mL (≈ 6.25 µM).

Question: Which EC90 does the source give for CC1(C)CCCC[C@@H](Cc2ccc(Cl)cc2)[C@@]1(O)Cn1cncn1 here?
Answer: Its EC90 is 4 µg/mL (≈ 11.5 µM).

Question: Which EC90 does the source give for O[C@]1(Cn2cncn2)CCC[C@@H]1Cc1ccc(Cl)cc1 (relative stereo) here?
Answer: Its EC90 is 2.1 µg/mL (≈ 7.2 µM).

Question: O[C@]1(Cn2cncn2)CCC[C@H]1Cc1ccc(Cl)cc1 (relative stereo) was tested. Which EC90 did it give?
Answer: Its EC90 is 152 µg/mL (≈ 521 µM).

Question: O[C@]1(Cn2cncn2)CCCC[C@@H]1Cc1ccc(Cl)cc1 (relative stereo) was tested. Which EC90 did it give?
Answer: Its EC90 is greater than 400 µg/mL.

Question: With O[C@]1(Cn2cncn2)CCCC[C@H]1Cc1ccc(Cl)cc1 (relative stereo) as the compound, how does the EC90 read?
Answer: Its EC90 is 64.3 µg/mL (≈ 210 µM).

Question: For O[C@]1(Cn2cncn2)CCCCC[C@@H]1Cc1ccc(Cl)cc1 (relative stereo), which EC90 is on record?
Answer: The EC90 was 2.2 µg/mL (≈ 6.88 µM).

Question: For O[C@]1(Cn2cncn2)CCCCC[C@H]1Cc1ccc(Cl)cc1 (relative stereo), which EC90 is on record?
Answer: The EC90 was greater than 400 µg/mL.

Question: For CC1(C)CC[C@H](Cc2ccc(Cl)cc2)[C@@]1(O)Cn1cncn1 (relative stereo), which EC90 is on record?
Answer: The EC90 was 0.2 µg/mL (≈ 0.625 µM).

Question: How did the EC90 turn out when CC1(C)CCC[C@H](Cc2ccc(Cl)cc2)[C@@]1(O)Cn1cncn1 (relative stereo) was run?
Answer: Its EC90 is 15 µg/mL (≈ 44.9 µM).

Question: Which EC90 does the source give for CC1(C)CCC[C@@H](Cc2ccc(Cl)cc2)[C@@]1(O)Cn1cncn1 (relative stereo) here?
Answer: Its EC90 is 4.4 µg/mL (≈ 13.2 µM).

Question: With CC1(C)CCCC[C@H](Cc2ccc(Cl)cc2)[C@@]1(O)Cn1cncn1 (relative stereo) as the compound, how does the EC90 read?
Answer: The EC90 was 1.3 µg/mL (≈ 3.74 µM).
